# Like-named read-outs stand apart in the source and are kept apart here.
# Key:
# KMS-34 cells = assay: 14 day KMS-34 long term proliferation (LTP) assay; conditions: read-out: LTP Day 14 Abs IC50
# Experimental: 14 Day KMS-34 Long Term Proliferation (LTP) Assay
# Incubate plates for 96 hrs.
# The final concentration is 1 μm.
# To calculate growth for days 4, 7, 11, and 14:
# 1. Calculate the split factor for day 4 to 7, day 7 to 11, and day 11-14 The split factor is the viable cells/mL on Day X (either 4, 7, or 11) divided by the density the cells are being split back to.
# 2. For growth of cells from day 4 to 7, multiply the day 7 viable cells/mL density by the split factor from day 4.
# 4. For growth of cells from Day 11 to 14, multiply the Day 14 viable cells/mL density by the days 4, 7, and 11 split factors.
# 5. Plot growth on semi-log chart (viable cells/mL on Y axis, in log, and days on X axis).
# From 5 mM to 0.25 μm. […] Mix well by pipetting up and down.
# SETD2(1434-1711) = target: T1, SETD2(1434-1711) (Homo sapiens, UniProt Q9BYW2); assay: SETD2 (1434-1711) assay; format: biochemical; conditions: read-out: SETD2 (1434-1711)
# T1 construct: SETD2 (1434-1711) Assay; catalogue N/A
# T1 sequence (Q9BYW2 1434-1711): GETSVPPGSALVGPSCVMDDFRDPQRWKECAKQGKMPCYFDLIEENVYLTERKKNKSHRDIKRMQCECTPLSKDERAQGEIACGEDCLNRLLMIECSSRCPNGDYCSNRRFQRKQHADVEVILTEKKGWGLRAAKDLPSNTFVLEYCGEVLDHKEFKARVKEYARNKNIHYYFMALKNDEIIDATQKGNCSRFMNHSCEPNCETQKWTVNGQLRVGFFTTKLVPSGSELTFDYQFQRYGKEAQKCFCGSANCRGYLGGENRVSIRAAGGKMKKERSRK
# H3K36me3 in A549 cells = assay: In-Cell Western (ICW) assay of SETD2 inhibitors (A549 assay); format: cell-based, human; conditions: A549 cells, read-out: SETD2 A549
# Procedure, shortened: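 A549 cells seeded at 4,000/well onto compound and incubated 3 days at 37° C. Methanol-fixed cells stained overnight at 4° C with anti-H3K36me3 (1:1000), then IRDye 800CW secondary with DRAQ5 DNA counterstain. Plates read by Licor imaging at 700 and 800 channels.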
Compound,IC50 (SETD2(1434-1711)) [nM],IC50 (H3K36me3 in A549 cells) [nM],IC50 (H3K36me3 in A549 cells; Homo sapiens) [nM],"IC50 (KMS-34 cells; KMS-34 cells, day 14) [nM]","IC50 (KMS-34 cells; Homo sapiens, KMS-34, 336 h) [nM]"
Cc1ccc(F)c2cc(C(=O)Nc3cc(F)cc(N4CCC(N5CCOCC5)C4)c3)[nH]c12 (stereo not drawn) [compound 11],6,40,,90,
Cc1ccc(F)c2cc(C(=O)Nc3cc(Cl)cc(N4CCC(N5CCOCC5)C4)c3)[nH]c12 (stereo not drawn) [compound 22],10,60,,110,
CC(=O)N1CCN(c2cc(Cl)cc(NC(=O)c3cc4c(F)ccc(C)c4[nH]3)c2)CC1 [compound 31],10,80,,130,
Cc1nnc(-c2cccc(NC(=O)c3cc4c(F)ccc(C)c4[nH]3)c2)s1 [compound 65],20,100,,280,
Cc1ccc(F)c2cc(C(=O)Nc3cccc(-c4cnn(C)c4)c3)[nH]c12 [compound 151],80,,300,,580
CC(=O)N1CCN(c2cccc(NC(=O)c3cc4cccc(C5CC5)c4[nH]3)c2)CC1 [compound 509],22400,,15400,,2600

# Continued, in another order:
IC50 (SETD2(1434-1711)) [nM],IC50 (H3K36me3 in A549 cells) [nM],IC50 (H3K36me3 in A549 cells; Homo sapiens) [nM],Compound,"IC50 (KMS-34 cells; KMS-34 cells, day 14) [nM]","IC50 (KMS-34 cells; Homo sapiens, KMS-34, 336 h) [nM]"
20,80,,CC(=O)N1CCN(c2cccc(NC(=O)c3cc4c(F)ccc(C)c4[nH]3)c2)CC1C (stereo not drawn) [compound 32],110,
60,100,,Cc1ccc(F)c2cc(C(=O)Nc3cccc(-c4cncnc4)c3)[nH]c12 [compound 64],380,
30,,200,Cc1ccc(F)c2cc(C(=O)Nc3cccc(N4CCOC4=O)c3)[nH]c12 [compound 66],,420
30,200,,Cc1ccc(F)c2cc(C(=O)Nc3cccc(N4CCC(N5CCOCC5)CC4)c3)[nH]c12 [compound 76],360,
50,200,,Cc1ccc(F)c2cc(C(=O)Nc3cccc(N4CCOC(CO)C4)c3)[nH]c12 (stereo not drawn) [compound 115],260,
60,300,,Cc1ccc(F)c2cc(C(=O)Nc3cccc4cnccc34)[nH]c12 [compound 134],800,
100,,500,Cc1ccc(F)c2cc(C(=O)Nc3cccc(-n4ccnc4)c3)[nH]c12 [compound 221],,930
